# Test system: MCF-7 breast cancer cells
# Experiment: Microarray gene expression analysis (Agilent whole human genome 4 x 44K; compound vs DMSO, LIMMA log2 fold change)
# Format: cell-based
compound,measurement,setting,value
Oc1cccc(-c2nc(N3CCOCC3)c3oc4ncccc4c3n2)c1 [PI-103],PDGFRB log2FC,"gene PDGFRB (5159), apoptosis genes",0.024
same,PEG3 log2FC,"gene PEG3 (5178), apoptosis genes",0.129
same,PEG10 log2FC,"gene PEG10 (23089), apoptosis genes",-0.104
same,PF4 log2FC,"gene PF4 (5196), apoptosis genes",-0.033
same,PHLDA3 log2FC,"gene PHLDA3 (23612), apoptosis genes",0.113
same,PIK3CG log2FC,"gene PIK3CG (5294), apoptosis genes",-0.004
same,PKP1 log2FC,"gene PKP1 (5317), apoptosis genes",0.031
same,PLEKHG5 log2FC,"gene PLEKHG5 (57449), apoptosis genes",0.199
same,PLSCR3 log2FC,"gene PLSCR3 (57048), apoptosis genes",0.125
same,POLB log2FC,"gene POLB (5423), apoptosis genes",-0.249
same,log2FC,"gene POLD4 (Gene 57804), cell cycle genes",0.0256
same,POR log2FC,"gene POR (5447), apoptosis genes",0.107
same,POU3F4 log2FC,"gene POU3F4 (5456), apoptosis genes",-0.017
same,POU4F1 log2FC,"gene POU4F1, apoptosis genes",0.019
same,log2FC,"gene PPAT (Gene 10606), cell cycle genes",0.08
same,log2FC,"gene PPP1CA (Gene 5499), cell cycle genes",-0.18
same,log2FC,"gene PPP2CA (Gene 5515), cell cycle genes",-0.52
same,PPP2R1A log2FC,"gene PPP2R1A (5518), apoptosis genes",0.062
same,PRAMEF8 log2FC,"gene PRAMEF8 (391002), apoptosis genes",0.060
same,PRAMEF10 log2FC,"gene PRAMEF10 (343071), apoptosis genes",0.251
same,log2FC,"gene PRKACB (Gene 5567), cell cycle genes",0.52
same,log2FC PRKAG3,"gene PRKAG3 (Gene 53632), cell cycle genes",-0.0237
same,PRKRA log2FC,"gene PRKRA (8575), apoptosis genes",-0.093
same,PRLR log2FC,"gene PRLR (5618), apoptosis genes",0.00543
same,PROC log2FC,"gene PROC (5624), apoptosis genes",0.030
same,PROP1 log2FC,"gene PROP1 (5626), apoptosis genes",0.324
same,PSMA1 log2FC,"gene PSMA1 (5682), apoptosis genes",-0.030
same,log2FC,"gene PSMA2 (Gene 5683), cell cycle genes",0.17
same,log2FC,"gene PSMA3 (Gene 5684), cell cycle genes",0.14
same,PSMA5 log2FC,"gene PSMA5 (5686), apoptosis genes",-0.147
same,log2FC PSMA5,"gene PSMA5 (Gene 5686), cell cycle genes",-0.15
same,PSMA7 log2FC,"gene PSMA7 (5688), apoptosis genes",-2.082
same,log2FC PSMA7,"gene PSMA7 (Gene 5688), cell cycle genes",-2.08
same,PSMB3 log2FC,"gene PSMB3 (5691), apoptosis genes",0.053
same,log2FC,"gene PSMB4 (Gene 5692), cell cycle genes",0.17
same,PSMB7 log2FC,"gene PSMB7 (5695), apoptosis genes",-0.149
same,log2FC PSMB7,"gene PSMB7 (Gene 5695), cell cycle genes",-0.15
same,PSMB8 log2FC,"gene PSMB8 (5696), apoptosis genes",-0.00568
same,PSMC4 log2FC,"gene PSMC4 (5704), apoptosis genes",-0.023
same,log2FC PSMC4,"gene PSMC4 (Gene 5704), cell cycle genes",-0.0233
same,PSMD2 log2FC,"gene PSMD2 (5708), apoptosis genes",0.00374
same,PSMD13 log2FC,"gene PSMD13 (5719), apoptosis genes",-0.172
same,log2FC,"gene PSMD14 (Gene 10213), cell cycle genes",0.15
same,log2FC,"gene PSME1 (Gene 5720), cell cycle genes",0.31
same,PSME2 log2FC,"gene PSME2 (5721), apoptosis genes",0.039
same,log2FC,"gene PTTG1 (Gene 9232), cell cycle genes",-0.21
same,PYCARD log2FC,"gene PYCARD (29108), apoptosis genes",-0.121
same,log2FC,"gene RAB11FIP3 (Gene 9727), cell cycle genes",-0.14
same,log2FC RAD51C,"gene RAD51C (Gene 5889), cell cycle genes",-0.24
same,log2FC RAE1,"gene RAE1 (Gene 8480), cell cycle genes",-0.15
same,RAF1 log2FC,"gene RAF1 (5894), apoptosis genes",-0.081
same,log2FC,"gene RALA (Gene 5898), cell cycle genes",0.34
same,log2FC,"gene RALB (Gene 5899), cell cycle genes",0.08
same,RAMP2 log2FC,"gene RAMP2 (10266), apoptosis genes",0.059
same,log2FC RANGAP1,"gene RANGAP1 (Gene 5905), cell cycle genes",-0.09
same,RAPSN log2FC,"gene RAPSN (5913), apoptosis genes",-0.146
same,RARB log2FC,"gene RARB (5915), apoptosis genes",0.00425
same,RASSF6 log2FC,"gene RASSF6 (166824), apoptosis genes",0.020
same,log2FC,"gene RBBP8 (Gene 5932), cell cycle genes",0.34
same,log2FC,"gene RBL1 (Gene 5933), cell cycle genes",0.17
same,log2FC,"gene RBM7 (Gene 10179), cell cycle genes",0.23
same,log2FC,"gene RCC1 (Gene 1104), cell cycle genes",-0.14
same,log2FC REEP4,"gene REEP4 (Gene 80346), cell cycle genes",0.28
same,RET log2FC,"gene RET (5979), apoptosis genes",-0.025
same,RHOT2 log2FC,"gene RHOT2 (89941), apoptosis genes",0.051
same,log2FC RPA2,"gene RPA2 (Gene 6118), cell cycle genes",-0.25
same,RPS3 log2FC,"gene RPS3 (6188), apoptosis genes",-0.043
same,RPS6KA2 log2FC,"gene RPS6KA2 (6196), apoptosis genes",0.189
same,log2FC,"gene RPS6KB1 (Gene 6198), cell cycle genes",0.25
same,RRN3 log2FC,"gene RRN3 (653390), apoptosis genes",0.004
same,log2FC,"gene RSPO1 (Gene 284654), cell cycle genes",-0.11
same,RYR2 log2FC,"gene RYR2 (6262), apoptosis genes",-0.075
same,S100A9 log2FC,"gene S100A9 (6280), apoptosis genes",0.057
same,S100A14 log2FC,"gene S100A14 (57402), apoptosis genes",0.033
same,log2FC,"gene SART1 (Gene 9092), cell cycle genes",-0.00235
same,SCIN log2FC,"gene SCIN (85477), apoptosis genes",-0.013
same,log2FC,"gene SEH1L (Gene 81929), cell cycle genes",-0.57
same,SEMA5A log2FC,"gene SEMA5A (9037), apoptosis genes",-0.022
same,log2FC SENP2,"gene SENP2 (Gene 59343), cell cycle genes",-0.06
same,SERINC3 log2FC,"gene SERINC3 (10955), apoptosis genes",0.115
same,SERPINE1 log2FC,"gene SERPINE1 (5054), apoptosis genes",-0.018
same,log2FC,"gene SESN1 (Gene 27244), cell cycle genes",-0.06
same,SHF log2FC,"gene SHF (90525), apoptosis genes",0.016
same,SKIL log2FC,"gene SKIL (6498), apoptosis genes",0.039
same,log2FC SKIL,"gene SKIL (Gene 6498), cell cycle genes",0.04
same,log2FC,"gene SLBP (Gene 7884), cell cycle genes",0.11
same,SLC25A6 log2FC,"gene SLC25A6 (293), apoptosis genes",-0.018
same,log2FC SLC26A8,"gene SLC26A8 (Gene 116369), cell cycle genes",-0.065
same,SLC40A1 log2FC,"gene SLC40A1 (30061), apoptosis genes",-0.00212
same,SMAD1 log2FC,"gene SMAD1 (4086), apoptosis genes",-0.215
same,SMNDC1 log2FC,"gene SMNDC1 (10285), apoptosis genes",-0.319
same,SOD1 log2FC,"gene SOD1 (6647), apoptosis genes",0.105
same,SOS1 log2FC,"gene SOS1 (6654), apoptosis genes",0.010
same,SOX8 log2FC,"gene SOX8 (30812), apoptosis genes",-0.456
same,log2FC SPO11,"gene SPO11 (Gene 23626), cell cycle genes",0.0237
same,SPTAN1 log2FC,"gene SPTAN1 (6709), apoptosis genes",0.362
same,log2FC,"gene SRC (Gene 6714), cell cycle genes",-0.35
same,log2FC,"gene STAG1 (Gene 10274), cell cycle genes",0.32
same,STK3 log2FC,"gene STK3 (6788), apoptosis genes",0.109
same,SULF1 log2FC,"gene SULF1 (23213), apoptosis genes",-0.171
same,log2FC,"gene SUPT5H (Gene 6829), cell cycle genes",0.00774
same,log2FC,"gene SUV39H2 (Gene 79723), cell cycle genes",-0.56
same,SYCP2 log2FC,"gene SYCP2 (10388), apoptosis genes",0.019
same,log2FC SYCP2,"gene SYCP2 (Gene 10388), cell cycle genes",0.02
same,log2FC SYCP3,"gene SYCP3 (Gene 50511), cell cycle genes",-0.03
same,log2FC,"gene TAF2 (Gene 6873), cell cycle genes",0.21
same,log2FC TAF6,"gene TAF6 (Gene 6878), cell cycle genes",0.22
same,log2FC,"gene TAOK2 (Gene 9344), cell cycle genes",-0.25
same,TEK log2FC,"gene TEK (7010), apoptosis genes",-0.024
same,log2FC,"gene TEX14 (Gene 56155), cell cycle genes",0.17
same,log2FC,"gene TEX15 (Gene 56154), cell cycle genes",0.23
same,TFAP2D log2FC,"gene TFAP2D (83741), apoptosis genes",0.021
same,log2FC,"gene TGFA (Gene 7039), cell cycle genes",-0.53
same,TGFB2 log2FC,"gene TGFB2 (7042), apoptosis genes",-0.026
same,log2FC TGFB2,"gene TGFB2 (Gene 7042), cell cycle genes",-0.0258
same,THEM4 log2FC,"gene THEM4 (117145), apoptosis genes",-0.280
same,log2FC THOC5,"gene THOC5 (Gene 8563), cell cycle genes",0.0165
same,TMBIM4 log2FC,"gene TMBIM4 (51643), apoptosis genes",-0.154
same,log2FC,"gene TMEM67 (Gene 91147), cell cycle genes",0.17
same,TMEM102 log2FC,"gene TMEM102 (284114), apoptosis genes",0.338
same,TNFRSF1B log2FC,"gene TNFRSF1B (7133), apoptosis genes",-0.040
same,TNFRSF8 log2FC,"gene TNFRSF8 (943), apoptosis genes",0.099
same,TNFRSF10C log2FC,"gene TNFRSF10C (8794), apoptosis genes",0.011
same,TNFSF8 log2FC,"gene TNFSF8 (944), apoptosis genes",-0.011
same,TNFSF9 log2FC,"gene TNFSF9 (8744), apoptosis genes",0.192
same,TNFSF10 log2FC,"gene TNFSF10 (8743), apoptosis genes",0.00148
same,TNFSF12 log2FC,"gene TNFSF12 (8742), apoptosis genes",0.353
same,TNFSF14 log2FC,"gene TNFSF14 (8740), apoptosis genes",0.027
same,TNFSF15 log2FC,"gene TNFSF15 (9966), apoptosis genes",0.054
same,TNFSF18 log2FC,"gene TNFSF18 (8995), apoptosis genes",0.071
same,log2FC,"gene TP73 (Gene 7161), cell cycle genes",-0.25
same,log2FC,"gene TPD52L1 (Gene 7164), cell cycle genes",0.15
same,TPX2 log2FC,"gene TPX2 (22974), apoptosis genes",-0.00173
same,TRAF2 log2FC,"gene TRAF2 (7186), apoptosis genes",-0.347
same,TRAF3IP2 log2FC,"gene TRAF3IP2 (10758), apoptosis genes",-0.037
same,log2FC TRIP13,"gene TRIP13 (Gene 9319), cell cycle genes",-0.38
same,log2FC,"gene TUBGCP6 (Gene 85378), cell cycle genes",-0.19
same,TXNDC5 log2FC,"gene TXNDC5 (81567), apoptosis genes",-0.039
same,log2FC TYMS,"gene TYMS (Gene 7298), cell cycle genes",-0.08
same,UBD log2FC,"gene UBD (10537), apoptosis genes",-0.037
same,UBE2V2 log2FC,"gene UBE2V2 (7336), apoptosis genes",-0.365
same,UNC13B log2FC,"gene UNC13B (10497), apoptosis genes",0.046
same,VDAC2 log2FC,"gene VDAC2 (7417), apoptosis genes",-0.094
same,VIM log2FC,"gene VIM (7431), apoptosis genes",0.122
same,VIP log2FC,"gene VIP (7432), apoptosis genes",-0.302
same,VNN1 log2FC,"gene VNN1 (8876), apoptosis genes",-0.010
same,log2FC,"gene VRK1 (Gene 7443), cell cycle genes",0.16
same,WNK3 log2FC,"gene WNK3 (65267), apoptosis genes",-0.015
same,log2FC,"gene WTAP (Gene 9589), cell cycle genes",-0.47
same,log2FC,"gene YY1AP1 (Gene 55249), cell cycle genes",0.31
same,ZBTB16 log2FC,"gene ZBTB16 (7704), apoptosis genes",-0.00549
same,log2FC ZC3H12D,"gene ZC3H12D (Gene 85313), cell cycle genes",-0.0743
same,log2FC,"gene ZC3HC1 (Gene 51530), cell cycle genes",0.16
same,ZNF205 log2FC,"gene ZNF205 (7755), apoptosis genes",-0.247
same,ZNF443 log2FC,"gene ZNF443 (10224), apoptosis genes",-0.204
same,log2FC,"gene ZNF503 (Gene 84858), cell cycle genes",-0.12
same,ZNF622 log2FC,"gene ZNF622 (90441), apoptosis genes",-0.120
